What is called IC50 is the midpoint of a concentration-inhibition curve.

Read-outs that look alike come from different tables or passages of the source.

The experiment addresses GABAA receptor ([35S]-TBPS binding, rat brain cortical membranes). The experiment in a line: Steroid inhibition of [35S]-TBPS binding. As to conditions: in the presence of 5 mM GABA. The procedure: [^35S]-t-Butylbicyclophosphorothionate (TBPS) binding assays using rat brain cortical membranes in the presence of 5 mM GABA has been described (Gee et al, J. Pharmacol. Exp. Ther. 1987, 241, 346-353; Hawkinson et al, Mol. Pharmacol. 1994, 46, 977-985; Lewin, A. H et al., Mol. Pharmacol. 1989, 35, 189-194).
Briefly, cortices are rapidly removed following decapitation of carbon dioxide-anesthetized Sprague-Dawley rats (200-250 g). The cortices are homogenized in 10 volumes of ice-cold 0.32 M sucrose using a glass/teflon homogenizer and centrifuged at 1500×g for 10 min at 4° C. The resultant supernatants are centrifuged at 10,000×g for 20 min at 4° C. to obtain the P2 pellets. The P2 pellets are resuspended in 200 mM NaCl/50 mM Na—K phosphate pH 7.4 buffer and centrifuged at 10,000×g for 10 min at 4° C. This washing procedure is repeated twice and the pellets are resuspended in 10 volumes of buffer. Aliquots ([…]) of the membrane suspensions are incubated with 3 nM [^35S]-TBPS and […] aliquots of test drug dissolved in dimethyl sulfoxide (DMSO) (final 0.5%) in the presence of 5 mM GABA. The incubation is brought to a final volume of 1.0 mL with buffer. Nonspecific binding is determined in the presence of […] and ranged from 15 to 25%. Following a 90 min incubation at room temp, the assays are terminated by filtration through glass fiber filters (Schleicher and Schuell No. 32) using a cell harvester (Brandel) and rinsed three times with ice-cold buffer. Filter bound radioactivity is measured by liquid scintillation spectrometry. Non-linear curve fitting of the overall data for each drug averaged for each concentration is done using Prism (GraphPad). […] The concentration of test compound producing 50% inhibition (IC50) of specific binding and the maximal extent of inhibition (Imax) are determined for the individual experiments with the same model used for the overall data and then the means±SEM.s of the individual experiments are calculated.
Various compounds are or can be screened to determine their potential as modulators of [^35S]-TBPS binding in vitro. These assays are or can be performed in accordance with the above.

The mark [1] stands for this setting: Table II-2, 3 nM [35S]-TBPS, read-out: TBPS IC50.
[2] abbreviates: Table I-1, 3 nM [35S]-TBPS, read-out: TBPS binding IC50.

For `CC[C@]12CC[C@@](C)(O)C[C@H]1CC[C@H]1[C@@H]3CC[C@H](C(=O)Cn4cc(C#N)cn4)[C@@]3(C)CC[C@@H]12`, the concentration for half-maximal inhibition (IC50) under setting [1] was below 10 nM.

Take `CC[C@]12CC[C@@](C)(O)C[C@H]1CC[C@H]1[C@@H]3CC[C@H](C(=O)Cn4nnc5ccc(OC)cc54)[C@@]3(C)CC[C@@H]12` (single isomer, unassigned) [II-M2]: under setting [1], the IC50 was below 10 nM.

In the case of `CC[C@]12CC[C@@](C)(O)C[C@H]1CC[C@H]1[C@@H]3CC[C@H](C(=O)Cn4nnc5cc(OC)ccc54)[C@@]3(C)CC[C@@H]12` (single isomer, unassigned) [II-M2a], the IC50 under setting [1] was below 10 nM.

`CC[C@]12CC[C@@](C)(O)C[C@H]1CC[C@H]1[C@@H]3CC[C@H](C(=O)Cn4nc5ccc(OC)cc5n4)[C@@]3(C)CC[C@@H]12` (single isomer, unassigned) [II-M2b]: under setting [1], the IC50 was below 10 nM.

For `CCOC[C@@]1(O)CC[C@@]2(CC)C(CC[C@@H]3[C@@H]2CC[C@]2(C)[C@@H](C(=O)Cn4nnc(C)n4)CC[C@@H]32)C1` (stereo in doubt) [II-77, 1-((3R,5R,8S,9S,10S,13S,14S,17S)-3-(ethoxymethyl)-10-ethyl-3-hydroxy-13-methylhexadecahydro-1H-cyclopenta[a]phenanthren-17-yl)-2-(5-methyl-2H-tetrazol-2-yl)ethan-1-one], the IC50 under setting [1] was 10 to 100 nM.

On to `CN(CC(=O)[C@H]1CC[C@H]2[C@@H]3CC[C@]4(C)C[C@](C)(O)CC[C@]4(C)[C@H]3CC[C@]12C)c1ccccc1` [I-A2, 1-((3R,5R,8S,9S,10R,13S,14S,17S)-3-hydroxy-3,5,10,13-tetramethylhexadecahydro-1H-cyclopenta[a]phenanthren-17-yl)-2-(methyl(phenyl)amino)ethan-1-one], for which the IC50 under setting [2] fell in the range of 100 to 1000 nM.

On to `C[C@@]1(O)CC[C@]2(C)[C@H]3CC[C@]4(C)[C@@H](C(=O)CNc5ccccc5)CC[C@H]4[C@@H]3CC[C@]2(C)C1` [I-A3, 1-((3R,5R,8S,9S,10R,13S,14S,17S)-3-hydroxy-3,5,10,13-tetramethylhexadecahydro-1H-cyclopenta [a]phenanthren-17-yl)-2-(phenylamino)ethan-1-one], for which the half-maximal inhibitory concentration (IC50) under setting [2] lay within 100 to 1000 nM.

With `C[C@@]1(O)CC[C@]2(C)[C@H]3CC[C@]4(C)[C@@H](C(=O)Cn5cc(C#N)cn5)CC[C@H]4[C@@H]3CC[C@]2(C)C1` [I-A4, 1-(2-((3R,5R,8S,9S,10R,13S,14S,17S)-3-hydroxy-3,5,10,13-tetramethylhexadecahydro-1H-cyclopenta[a]phenanthren-17-yl)-2-oxoethyl)-1H-pyrazole-4-carbonitrile], the IC50 under setting [2] lay within 100 to 1000 nM.

As for `CC(=O)[C@H]1CC[C@H]2[C@@H]3CC[C@]4(C)C[C@@](C)(O)CC[C@]4(C)[C@H]3CC[C@]12C` [I-A5, 1-((3S,5R,8S,9S,10R,13S,14S,17S)-3-hydroxy-3,5,10,13-tetramethylhexadecahydro-1H-cyclopenta[a]phenanthren-17-yl)ethan-1-one], the IC50 under setting [2] is 1000 to 10000 nM.

As to `C[C@@]1(O)CC[C@]2(C)[C@H]3CC[C@]4(C)[C@@H](C(=O)Cn5cc6ccncc6n5)CC[C@H]4[C@@H]3CC[C@]2(C)C1` [I-A6, 1-((3R,5R,8S,9S,10R,13S,14S,17S)-3-hydroxy-3,5,10,13-tetramethylhexadecahydro-1H-cyclopenta[a]phenanthren-17-yl)-2-(2H-pyrazolo[3,4-c]pyridin-2-yl)ethan-1-one], the IC50 under setting [2] lay in the range of 100 to 1000 nM.

On to `C[C@@]1(O)CC[C@]2(C)[C@H]3CC[C@]4(C)[C@@H](C(=O)Cn5ncc6ccncc65)CC[C@H]4[C@@H]3CC[C@]2(C)C1` [I-A7, 1-((3R,5R,8S,9S,10R,13S,14S,17S)-3-hydroxy-3,5,10,13-tetramethylhexadecahydro-1H-cyclopenta[a]phenanthren-17-yl)-2-(1H-pyrazolo[3,4-c]pyridin-1-yl)ethan-1-one], for which the IC50 under setting [2] lay in the range of 100 to 1000 nM.

`Cc1nnnn1CC(=O)[C@H]1CC[C@H]2[C@@H]3CC[C@]4(C)C[C@](C)(O)CC[C@]4(C)[C@H]3CC[C@]12C` [I-A8, 1-((3R,5R,8S,9S,10R,13S,14S,17S)-3-hydroxy-3,5,10,13-tetramethylhexadecahydro-1H-cyclopenta[a]phenanthren-17-yl)-2-(5-methyl-1H-tetrazol-1-yl)ethan-1-one]: the IC50 under setting [2] was 100 to 1000 nM.

Take `Cc1nnn(CC(=O)[C@H]2CC[C@H]3[C@@H]4CC[C@]5(C)C[C@](C)(O)CC[C@]5(C)[C@H]4CC[C@]23C)n1` [I-A9, 1-((3R,5R,8S,9S,10R,13S,14S,17S)-3-hydroxy-3,5,10,13-tetramethylhexadecahydro-1H-cyclopenta[a]phenanthren-17-yl)-2-(5-methyl-2H-tetrazol-2-yl)ethan-1-one]: under setting [2], the IC50 was 100 to 1000 nM.

`CC(=O)[C@H]1CC[C@H]2[C@@H]3CC[C@]4(C)C[C@](C)(O)CC[C@]4(C)[C@H]3CC[C@]12C` [I-B6, 1-((3R,5R,8S,9S,10R,13S,14S,17S)-3-hydroxy-3,5,10,13-tetramethylhexadecahydro-1H-cyclopenta [a]phenanthren-17-yl)ethan-1-one]: the IC50 under setting [2] lay in the range of 100 to 1000 nM.

Consider `CC[C@]12CC[C@@](C)(O)C[C@H]1CC[C@H]1[C@@H]3CC[C@H](C(=O)N4CC[C@@H](c5ccccc5)C4)[C@@]3(C)CC[C@@H]12` [II-1], for which the IC50 under setting [1] lay within 10 to 100 nM.

Regarding `CC[C@]12CC[C@@](C)(O)C[C@H]1CC[C@H]1[C@@H]3CC[C@H](C(=O)Cn4nccn4)[C@@]3(C)CC[C@@H]12` [II-13, 1-((3R,5R,8S,9S,10S,13S,14S,17S)-10-ethyl-3-hydroxy-3,13-dimethylhexadecahydro-1H-cyclopenta[a]phenanthren-17-yl)-2-(2H-1,2,3-triazol-2-yl)ethan-1-one], under setting [1], the concentration for half-maximal inhibition (IC50) was below 10 nM.

Turning to `CC[C@]12CC[C@@](C)(O)C[C@H]1CC[C@H]1[C@@H]3CC[C@H](C(=O)Cn4ccnn4)[C@@]3(C)CC[C@@H]12` [II-13a, 1-((3R,5R,8S,9S,10S,13S,14S,17S)-10-ethyl-3-hydroxy-3,13-dimethylhexadecahydro-1H-cyclopenta[a]phenanthren-17-yl)-2-(1H-1,2,3-triazol-1-yl)ethan-1-one], under setting [1], the IC50 is below 10 nM.

For `CC[C@]12CC[C@@](C)(O)C[C@H]1CC[C@H]1[C@@H]3CC[C@H](C(=O)Cn4nnc(C)n4)[C@@]3(C)CC[C@@H]12` [II-14, 1-((3R,5R,8S,9S,10S,13S,14S,17S)-10-ethyl-3-hydroxy-3,13-dimethylhexadecahydro-1H-cyclopenta[a]henanthren-17-yl)-2-(5-methyl-2H-tetrazol-2-yl)ethan-1-one], under setting [1], the IC50 was below 10 nM.

With `CC[C@]12CC[C@@](C)(O)C[C@H]1CC[C@H]1[C@@H]3CC[C@H](C(=O)Cn4nnnc4C)[C@@]3(C)CC[C@@H]12` [II-14a, 1-((3R,5R,8S,9S,10S,13S,14S,17S)-10-ethyl-3-hydroxy-3,13-dimethylhexadecahydro-1H-cyclopenta[a]phenanthren-17-yl)-2-(5-methyl-1H-tetrazol-1-yl)ethan-1-one], under setting [1], the IC50 is below 10 nM.

The values are drawn from patent publication US20210101928A1 (Sage Therapeutics, Inc., priority 2017, published 2021).
